Earlier results as cited in paper PMC5306496 (British Journal of Clinical Pharmacology, 2016).
Where two headings read alike, the source gives them in different places.

Assays:
[1] = not given; remark: listed apart in the source
[2] = not given; remark: listed apart in the source
[3] = CVVHDF
[4] = patients with SAB/RIE and CrCl > 30 ml min^−1, 6 mg kg^−1 once daily

- CL (base model without CRRT patients, not-on-dialysis): 11.4 mL/h/kg
- CL (base model without CRRT patients, not-on-dialysis, at 70 kg): 0.80 L/h
- CL (base model, CAPD): 2.98 mL/h/kg
- CL (base model, HD): 3.43 mL/h/kg
- efficacy exposure reference AUC0–24h [1, 4]: 465 to 761 µg·h/mL
- efficacy exposure reference C max [1, 4]: 66000 to 112000 ng/mL
- clearance by CRRT as share of the total drug clearance [2]: 40–50%
- PK linearity ([2]; once‐daily doses of 6–12 mg kg^−1): linear PK profile
- amount of drug cleared by the kidneys ([2]; patients with normal renal function): 34–54%
- C max ([3]; 4 mg kg^−1/day, n = 4, range): 24700 to 69700 ng/mL
- C min ([3]; 4 mg kg^−1/day, n = 4, range): 2700 to 11900 ng/mL
- C max ([3]; 5 mg kg^−1/day, n = 2, range): 34700 to 35700 ng/mL
- C min ([3]; 5 mg kg^−1/day, n = 2, range): 3000 to 3700 ng/mL
- C max ([3]; 6 mg kg^−1/day, n = 2, range): 20500 to 61700 ng/mL
- C min ([3]; 6 mg kg^−1/day, n = 2, range): 1500 to 15900 ng/mL
Substance: daptomycin
- C min that may be associated with elevated creatine phosphokinase (CPK) ([1]; additional safety threshold): > 24300 ng/mL
- safety threshold C max ([1]; healthy volunteers with normal renal function, 12 mg kg^−1 Q24 h): 197000 ng/mL
